Data taken from patent US4122179A, “Acid addition salts of vincamine and apovincamine” (priority 1976, dated 1978).

What was measured:
[1] = LD50 / acute toxicity, intraperitoneal route; assay type: in vivo; details: i.p.; for Toxicity (Gleason): Gleason class in words, classes not defined
[2] = Hematic levels at different times after oral administration (absorption); assay type: in vivo, Wistar rat; details: 100 mg/kg expressed as vincamine/apovincamine, 5% carboxymethyl cellulose suspension, 100 mg/kg
Outline: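 Wistar rats dosed orally at 100 mg/kg (expressed as vincamine or apovincamine) as a suspension in 5% carboxymethyl cellulose. Blood levels measured chromatographically at 0, 30, 120, 240, 480 min, 10 h and 12 h to define absorption and time of maximum concentration.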

vertebral arteria = test: Cerebral vasodilating activity: hematic flow at the vertebral arteria after i.v. administration; assay type: in vivo; details: i.v. (femoral vein), 5 mg/kg of vincamine/apovincamine, anesthetized dog, 4 animals per compound; 5 mg/kg
Outline: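 In anesthetized dogs, groups of 4 per compound, left vertebral artery blood flow recorded with periarterial electromagnetic flowmeters after i.v. dosing. Values are percent change in flow.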

Solubility = assay type: physicochemical; details: qualitative; for solubility in alcohol: alcohol (ethyl alcohol)

SMILES | LD50 [1] [mg/kg] | Toxicity (Gleason) [1] | Max. conc. time [2] [min] | % increase (percent variation of hematic flow, left vertebral arteria) (vertebral arteria) [%] | solubility in alcohol (Solubility) | solubility in the common (organic) solvents (Solubility) | solubility in water (Solubility)
CC[C@@]12C=C(C(=O)OC)n3c4c(c5ccccc53)CCN(CCC1)[C@H]42 [Example 28.b, Apovincamine salicylate] | 750 | modest | 240 | 26.7 | soluble | – | –
CC[C@]12CCCN3CCc4c(n(c5ccccc45)[C@@](O)(C(=O)OC)C1)[C@@H]32 [Example 25.a, Vincamine (D,L)-mandelate] | 900 | modest | 20 | 39.4 | soluble | insoluble | insoluble
CC[C@@]12C=C(C(=O)OC)n3c4c(c5ccccc53)CCN(CCC1)[C@H]42 [Example 18.b] | 1500 | light | 120 | 33.1 | insoluble | – | insoluble
CC[C@]12CCCN3CCc4c(n(c5ccccc45)[C@@](O)(C(=O)OC)C1)[C@@H]32 [Example 9.a, Vincamine clofibrate (2-(p-chlorophenoxy)-2-methylpropionate)] | 900 | modest | 480 | 22.1 | soluble | – | insoluble
CC[C@@]12C=C(C(=O)OC)n3c4c(c5ccccc53)CCN(CCC1)[C@H]42 [Example 16.b, Apovincamine acetylsalicylate] | 750 | modest | 60 | 40.1 | soluble | – | very little soluble
CC[C@]12CCCN3CCc4c(n(c5ccccc45)[C@@](O)(C(=O)OC)C1)[C@@H]32 [Example 22.a, Vincamine caprate] | 2000 | negligible | 120 | 23.9 | – | insoluble | insoluble
CC[C@]12CCCN3CCc4c(n(c5ccccc45)[C@@](O)(C(=O)OC)C1)[C@@H]32 [Example 13.a, Vincamine D(+)-camphorsulfonate] | 1350 | light | 60 | 30.1 | poorly soluble | insoluble | soluble
CC[C@@]12C=C(C(=O)OC)n3c4c(c5ccccc53)CCN(CCC1)[C@H]42 [Example 21.b, Apovincamine caproate] | 1900 | light | 60 | 36.4 | insoluble | – | insoluble
